Settings: Liquid, Closed cell (Static) method

O=C=O [carbon dioxide]
Settings | vapor or sublimation pressure [kPa]
213.22 K | 410.4
223.15 K | 681.8
243.13 K | 1426.3
263.13 K | 2646.7
273.22 K | 3491.3
283.15 K | 4502.3
299.22 K | 6595

From the NIST ThermoML archive (doi:10.1016/j.fluid.2018.02.009)
